The record followed here is PubChem BioAssay (NCI).

Test systems include COLO 205 colon; SK-MEL-5 melanoma; BT-549 breast; HCT-15 colon; PC-3 prostate; NCI/ADR-RES ovarian; SF-539 CNS; HS 578T breast; HCC-2998 colon; A549 NSCLC.
What all share (assay): inhibition of tumour cell growth, NCI panel, 48 h

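Assay format: 96-well plates, 48-hour exposure. GI50 marks 50% less growth. TGI denotes the concentration required for complete inhibition of growth.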

On to `c1ccc2c(-c3cnc(-c4c[nH]c5ccccc45)cn3)c[nH]c2c1`, for which the TGI with COLO 205 colon, in the experiment with SK-MEL-5 melanoma, in the experiment on BT-549 breast, in the experiment with HCT-15 colon, with PC-3 prostate and in the experiment on NCI/ADR-RES ovarian was > 100 µM in each case. Besides, the TGI in the experiment with SF-539 CNS is 73.7 µM; in the experiment with HS 578T breast, > 100 µM; in the experiment with HCC-2998 colon, > 100 µM; with A549 NSCLC it was > 100 µM.
Turning to `Cc1ccc(C)n2c1nc1ccc3ccccc3c12`, the TGI in the experiment with COLO 205 colon, with SK-MEL-5 melanoma, with BT-549 breast, with HCT-15 colon, with PC-3 prostate and with NCI/ADR-RES ovarian was > 100 µM throughout. For the same compound, the TGI with SF-539 CNS, in the experiment on HS 578T breast, with HCC-2998 colon and in the experiment on A549 NSCLC was > 100 µM in each case.
In the case of `CC(=O)Oc1ccc(/C=C/C(=O)O[C@@H](C)[C@H](C)OC(=O)/C=C/c2ccc(OC(C)=O)c(OC(C)=O)c2)cc1OC(C)=O`, the TGI in the experiment with COLO 205 colon is > 100 µM; in the experiment on SK-MEL-5 melanoma it was 29.2 µM; in the experiment with BT-549 breast, 89.2 µM; with HCT-15 colon it was 33.1 µM; in the experiment on PC-3 prostate, > 100 µM; in the experiment on NCI/ADR-RES ovarian, > 100 µM. The TGI is > 100 µM with SF-539 CNS, > 100 µM with HS 578T breast, 50.4 µM in the experiment on HCC-2998 colon and > 100 µM with A549 NSCLC.
For the compound `COc1cc2c(cc1C[N+](C)(C)CSc1ccccc1)-c1ccccc1CC2`, the TGI in the experiment on COLO 205 colon is 5.73 µM; with SK-MEL-5 melanoma it was 2.39 µM; with BT-549 breast it was 15.5 µM; in the experiment on HCT-15 colon, 30.2 µM; in the experiment with PC-3 prostate, 11 µM; in the experiment on NCI/ADR-RES ovarian it was > 100 µM. The TGI with SF-539 CNS was 20.6 µM; with HS 578T breast, 19.3 µM; with HCC-2998 colon it was 13.6 µM; in the experiment with A549 NSCLC, 45.8 µM.
In the case of `CC(=O)OC[C@H]1O[C@@H](O[C@H]2[C@H](OC(C)=O)C=CO[C@@H]2COC(C)=O)C(OC(C)=O)[C@H]2OC(C)(C)O[C@H]21` (stereo not given in full), the TGI with COLO 205 colon, in the experiment with SK-MEL-5 melanoma, in the experiment with BT-549 breast, in the experiment on HCT-15 colon, with PC-3 prostate and in the experiment on NCI/ADR-RES ovarian was > 100 µM in each case. Further, the TGI with SF-539 CNS, with HS 578T breast, in the experiment with HCC-2998 colon and with A549 NSCLC was > 100 µM in each case.
With `O=[N+]([O-])c1cccc(-c2csc(N=Nc3c(O)[nH]c4ccccc34)n2)c1`, the TGI was > 100 µM in the experiment on COLO 205 colon; 49.9 µM with SK-MEL-5 melanoma; > 100 µM with BT-549 breast; 54.4 µM with HCT-15 colon; 99.4 µM with PC-3 prostate; 29.6 µM with NCI/ADR-RES ovarian. Also, the TGI in the experiment on SF-539 CNS is 68 µM; in the experiment with HS 578T breast, 45.7 µM; in the experiment on HCC-2998 colon, 32 µM; with A549 NSCLC it was 44 µM.
In the case of `CC(C)CCCC(C)[C@H]1CCC2[C@@H]3CCC4Cc5nc6c(nc5C[C@]4(C)C3CC[C@@]21C)CC1CC[C@@H]2C(C[C@@H](O)[C@@]3(C)C2C[C@@H]2OC4(CCC(C)CO4)C(C)[C@@H]23)[C@@]1(C)C6` (stereo not given in full), the TGI with COLO 205 colon, in the experiment on SK-MEL-5 melanoma, in the experiment with BT-549 breast, in the experiment on HCT-15 colon, with PC-3 prostate and in the experiment on NCI/ADR-RES ovarian was > 100 µM in each case. Besides, the TGI in the experiment with SF-539 CNS, in the experiment with HS 578T breast, with HCC-2998 colon and in the experiment with A549 NSCLC was > 100 µM each time.
Regarding `CSc1nc(NC2CCCC2)c2cc[nH]c2n1`, the TGI in the experiment with COLO 205 colon is > 100 µM; in the experiment with SK-MEL-5 melanoma, 96.6 µM; in the experiment with BT-549 breast it was > 100 µM; with HCT-15 colon, > 100 µM; with PC-3 prostate, > 100 µM; in the experiment on NCI/ADR-RES ovarian, > 100 µM. Besides, the TGI in the experiment on SF-539 CNS, with HS 578T breast, in the experiment with HCC-2998 colon and in the experiment on A549 NSCLC was > 100 µM in each case.
Take `Oc1ccc(Cl)cc1C1=N/C(=N\CN2CCN(C/N=C3/N=C(c4cc(Cl)ccc4O)CC(c4ccccc4)N3)CC2)NC(c2ccccc2)C1` (stereo not given): the TGI in the experiment on COLO 205 colon, in the experiment with SK-MEL-5 melanoma, in the experiment with BT-549 breast, in the experiment with HCT-15 colon, in the experiment on PC-3 prostate and with NCI/ADR-RES ovarian was > 100 µM each time. The TGI with SF-539 CNS, in the experiment on HS 578T breast, with HCC-2998 colon and in the experiment with A549 NSCLC was > 100 µM in each case.
Regarding `CCCC/C=C1\CCC(CN2CCCCC2)C1=O` (stereo not given), the TGI was 29 µM in the experiment with COLO 205 colon; 42.6 µM in the experiment on SK-MEL-5 melanoma; > 100 µM in the experiment with BT-549 breast; 20.6 µM in the experiment with HCT-15 colon; > 100 µM with PC-3 prostate; > 100 µM in the experiment on NCI/ADR-RES ovarian. The TGI in the experiment with SF-539 CNS is 36.1 µM; in the experiment with HS 578T breast, > 100 µM; in the experiment on HCC-2998 colon, 22.6 µM; with A549 NSCLC it was 52.9 µM.
`COc1ccc2c(c1)OC(c1cccnc1)C(c1ccccc1)C2=O` (stereo not given): the TGI in the experiment with COLO 205 colon, with SK-MEL-5 melanoma, in the experiment on BT-549 breast, with HCT-15 colon, in the experiment on PC-3 prostate and with NCI/ADR-RES ovarian was > 100 µM in each case. Further, the TGI in the experiment with SF-539 CNS, in the experiment on HS 578T breast, with HCC-2998 colon and in the experiment with A549 NSCLC was > 100 µM throughout.
`CC(C)/C(Cl)=N/OC(=O)Nc1ccc(F)c(Cl)c1`: the TGI worked out at 3.25 µM in the experiment on COLO 205 colon; 28.2 µM in the experiment on SK-MEL-5 melanoma; 9.98 µM with BT-549 breast; 4.16 µM in the experiment on HCT-15 colon; 29.8 µM in the experiment with PC-3 prostate; 29.3 µM in the experiment with NCI/ADR-RES ovarian. Also, the TGI was determined as 20.9 µM in the experiment with SF-539 CNS, 53.3 µM with HS 578T breast, 28.1 µM in the experiment on HCC-2998 colon and 37.4 µM in the experiment on A549 NSCLC.
For `Cc1ccc2[nH]cc(-c3nc(-c4c[nH]c5ncccc45)cs3)c2c1`, the GI50 in the experiment with COLO 205 colon is 0.349 µM; in the experiment with SK-MEL-5 melanoma it was > 100 µM; in the experiment on BT-549 breast, > 100 µM; with HCT-15 colon, > 100 µM; in the experiment on PC-3 prostate, > 100 µM; in the experiment with NCI/ADR-RES ovarian it was > 100 µM. Also, the GI50 with SF-539 CNS, in the experiment with HS 578T breast, in the experiment on HCC-2998 colon and in the experiment with A549 NSCLC was > 100 µM in each case. Besides, the TGI with COLO 205 colon, with SK-MEL-5 melanoma, in the experiment with BT-549 breast, in the experiment with HCT-15 colon, with PC-3 prostate and with NCI/ADR-RES ovarian was > 100 µM throughout. For the same compound, the TGI in the experiment on SF-539 CNS, in the experiment on HS 578T breast, in the experiment with HCC-2998 colon and with A549 NSCLC was > 100 µM each time.
